The target in assay [1] is T1, Human PDGFRα, cytoplasmic domain (GST-PDGFRα) (Homo sapiens, UniProt P16234).
T1 construct: made in house
Put plainly: Human PDGFRα biochemical inhibition assay (off-chip Mobility Shift Assay).

Assay [2] addresses T2, Human PDGFRβ, cytoplasmic domain (GST-PDGFRβ) (Homo sapiens, UniProt P09619).
T2 construct: made in house
In words: Human PDGFRβ biochemical inhibition assay (off-chip Mobility Shift Assay). The method in brief:
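GST-tagged cytoplasmic domain (aa 557-1106) from baculovirus was incubated 1 h at room temperature with compound, CSKtide, ATP at Km and Mg²⁺ in HEPES buffer, pH 7.5. Phosphorylated and unphosphorylated peptide were separated by off-chip mobility shift, and the product ratio P/(P+S) gave percent inhibition.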

Structures are written as SMILES. Some results are limits rather than exact numbers.

T2 sequence (P09619 with tags, fused parts or gaps): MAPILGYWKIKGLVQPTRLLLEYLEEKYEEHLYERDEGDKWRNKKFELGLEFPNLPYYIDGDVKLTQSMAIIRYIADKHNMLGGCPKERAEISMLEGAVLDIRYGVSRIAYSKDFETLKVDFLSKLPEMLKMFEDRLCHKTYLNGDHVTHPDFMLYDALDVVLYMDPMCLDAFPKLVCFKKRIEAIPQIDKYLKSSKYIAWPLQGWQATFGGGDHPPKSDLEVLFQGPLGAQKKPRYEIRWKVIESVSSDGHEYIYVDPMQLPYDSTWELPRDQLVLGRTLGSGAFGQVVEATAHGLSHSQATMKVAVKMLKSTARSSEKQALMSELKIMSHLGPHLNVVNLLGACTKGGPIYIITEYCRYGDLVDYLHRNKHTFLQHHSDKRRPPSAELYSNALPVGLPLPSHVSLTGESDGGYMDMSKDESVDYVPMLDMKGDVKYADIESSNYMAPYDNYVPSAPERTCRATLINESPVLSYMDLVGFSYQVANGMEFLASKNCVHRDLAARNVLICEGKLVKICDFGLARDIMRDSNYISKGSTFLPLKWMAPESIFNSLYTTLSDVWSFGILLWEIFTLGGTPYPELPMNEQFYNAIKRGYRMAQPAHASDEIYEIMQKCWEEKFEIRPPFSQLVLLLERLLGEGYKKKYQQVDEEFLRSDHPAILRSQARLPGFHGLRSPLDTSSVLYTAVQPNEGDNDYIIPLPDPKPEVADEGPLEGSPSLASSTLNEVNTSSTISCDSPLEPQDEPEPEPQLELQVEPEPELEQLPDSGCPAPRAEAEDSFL
T1 sequence (P16234 550-1089 T674I): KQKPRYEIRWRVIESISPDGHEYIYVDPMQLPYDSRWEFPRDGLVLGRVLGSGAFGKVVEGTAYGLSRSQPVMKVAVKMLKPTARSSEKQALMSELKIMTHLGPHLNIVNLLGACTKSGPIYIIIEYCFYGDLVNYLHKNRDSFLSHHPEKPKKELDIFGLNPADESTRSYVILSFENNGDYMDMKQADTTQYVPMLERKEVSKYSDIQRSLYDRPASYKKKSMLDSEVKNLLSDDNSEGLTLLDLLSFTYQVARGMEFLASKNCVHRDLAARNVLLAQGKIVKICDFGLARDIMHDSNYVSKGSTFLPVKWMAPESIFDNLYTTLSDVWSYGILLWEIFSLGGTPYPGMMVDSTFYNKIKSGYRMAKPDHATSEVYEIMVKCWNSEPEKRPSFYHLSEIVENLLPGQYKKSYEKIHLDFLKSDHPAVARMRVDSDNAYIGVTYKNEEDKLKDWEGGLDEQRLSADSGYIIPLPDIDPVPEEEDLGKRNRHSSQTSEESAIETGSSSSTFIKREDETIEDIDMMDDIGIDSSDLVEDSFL

Usually IC50 stands for the point on the concentration scale where inhibition reaches its midpoint. `CCn1cc2ncc(N[C@@H](C)c3cc(NC(=O)c4cncc(C)c4)ccc3C)nc2n1` [Compound 510, (S)-N-(3-(1-((2-ethyl-2H-pyrazolo[3,4-b]pyrazin-6-yl)amino)ethyl)-4-methylphenyl)-5-methylnicotinamide]: the IC50 in assay [1] and in assay [2] was under 300 nM each time.

Turning to `C[C@H](Nc1cnc2[nH]ccc2n1)c1cccc(NC(=O)c2cnn(C3CCC3)c2)c1` [Compound 598, (S)-N-(3-(1-((5H-pyrrolo[2,3-b]pyrazin-2-yl)amino)ethyl)phenyl)-1-cyclobutyl-1H-pyrazole-4-carboxamide], the concentration for half-maximal inhibition (IC50) in assay [1] and in assay [2] was under 300 nM each time.

On to `C[C@H](Nc1cnc2[nH]ccc2n1)c1cccc(NC(=O)c2ccc(C3CC3)nc2)c1` [Compound 594, (S)-N-(3-(1-((5H-pyrrolo[2,3-b]pyrazin-2-yl)amino)ethyl)phenyl)-6-cyclopropylnicotinamide], for which the IC50 in assay [1] and in assay [2] was under 300 nM in each case.

Consider `Cc1c[nH]c2ncc(N[C@@H](C)c3cccc(NC(=O)c4ccc(C5CC5)nc4)c3)nc12` [Compound 558, (S)-6-cyclopropyl-N-(3-(1-((7-methyl-5H-pyrrolo[2,3-b]pyrazin-2-yl)amino)ethyl)phenyl)nicotinamide], for which the IC50 in assay [1] and in assay [2] was under 300 nM each time.

`Cc1cc(C(=O)Nc2cccc([C@H](C)Nc3cnc4cnn(C)c4n3)c2)cnc1CN1CCSCC1` [Compound 244, (S)-5-methyl-N-(3-(1-((1-methyl-1H-pyrazolo[3,4-b]pyrazin-6-yl)amino)ethyl)phenyl)-6-(thiomorpholinomethyl) nicotinamide]: the IC50 in assay [1] and in assay [2] was under 300 nM throughout.

Regarding `CCn1cc2ncc(N[C@@H](C)c3cccc(NC(=O)Nc4ccc(C5CC5)nc4)c3)nc2n1` [Compound 737, (S)-1-(6-cyclopropylpyridin-3-yl)-3-(3-(1-((2-ethyl-2H-pyrazolo[3,4-b]pyrazin-6-yl)amino)ethyl)phenyl)urea], the half-inhibitory concentration (IC50) in assay [1] and in assay [2] was under 300 nM in each case.

On to `CCn1cc2ncc(N[C@@H](C)c3cccc(NC(=O)c4ccc(CN5CC[C@@H](F)C5)c(C)c4)c3)nc2n1` [Compound 469, N-(3-((S)-1-((2-ethyl-2H-pyrazolo[3,4-b]pyrazin-6-yl)amino)ethyl)phenyl)-4-(((R)-3-fluoropyrrolidin-1-yl)methyl)-3-methylbenzamide], for which the IC50 in assay [1] and in assay [2] was under 300 nM each time.

On to `C[C@H](Nc1cnc2cnn(C)c2n1)c1cc(NC(=O)c2cnn(C3CCC3)c2)ccc1F` [Compound 213, (S)-1-cyclobutyl-N-(4-fluoro-3-(1-((1-methyl-1H-pyrazolo[3,4-b]pyrazin-6-yl)amino)ethyl)phenyl)-1H-pyrazole-4-carboxamide], for which the IC50 in assay [1] and in assay [2] was under 300 nM in each case.

`COC(=O)c1ccc(C(=O)Nc2cccc([C@H](C)Nc3cnc4cnn(C)c4n3)c2)cc1C` [Compound 199, methyl (S)-2-methyl-4-((3-(1-((1-methyl-1H-pyrazolo[3,4-b]pyrazin-6-yl)amino)ethyl)phenyl)carbamoyl)benzoate]: the IC50 in assay [1] and in assay [2] was under 300 nM each time.

As to `CCn1cc2ncc(N[C@@H](C)c3cc(NC(=O)c4ccc(C(F)(F)F)nc4)ccc3C(F)(F)F)nc2n1` [Compound 459, (S)-N-(3-(1-((2-ethyl-2H-pyrazolo[3,4-b]pyrazin-6-yl)amino)ethyl)-4-(trifluoromethyl)phenyl)-6-(trifluoromethyl) nicotinamide], the IC50 in assay [1] and in assay [2] was at least 1000 nM throughout.

Consider `Cc1cncc(C(=O)Nc2cccc([C@H](C)Nc3cnc4cccnc4n3)c2)c1` [Compound 5, (S)-5-methyl-N-(3-(1-(pyrido[2,3-b]pyrazin-3-ylamino)ethyl)phenyl) nicotinamide], for which the values for the IC50 in assay [1] and in assay [2] were under 300 nM and 300 to 1000 nM, respectively.

Take `CCn1cc2ncc(N[C@@H](C)c3cccc(NC(=O)c4ccc(NC(C)C)nc4)c3)nc2n1` [Compound 395, (S)-N-(3-(1-((2-ethyl-2H-pyrazolo[3,4-b]pyrazin-6-yl)amino)ethyl)phenyl)-6-(isopropylamino)nicotinamide]: the concentration for half-maximal inhibition (IC50) in assay [1] was under 300 nM; in assay [2], 300 to 1000 nM.

As to `C[C@H](Nc1cnc2cnn(C)c2n1)c1cccc(NC(=O)c2cnn(C3CCC3)c2)c1` [Compound 151, (S)-1-cyclobutyl-N-(3-(1-((1-methyl-1H-pyrazolo[3,4-b]pyrazin-6-yl)amino)ethyl)phenyl)-1H-pyrazole-4-carboxamide], the IC50 in assay [1] and in assay [2] was under 300 nM in each case.

On to `C[C@H](Nc1cnc2cnn(C)c2n1)c1cccc(NC(=O)c2cc(C(C)(C)C)on2)c1` [Compound 143, (S)-5-(tert-butyl)-N-(3-(1-((1-methyl-1H-pyrazolo[3,4-b]pyrazin-6-yl)amino)ethyl)phenyl)isoxazole-3-carboxamide], for which the IC50 in assay [1] and in assay [2] was under 300 nM throughout.

`C[C@H](Nc1cnc2cn[nH]c2n1)c1cccc(NC(=O)c2cncc(C3CC3)c2)c1` [Compound 93, (S)-N-(3-(1-((1H-pyrazolo[3,4-b]pyrazin-6-yl)amino)ethyl)phenyl)-5-cyclopropylnicotinamide]: the IC50 in assay [1] and in assay [2] was under 300 nM in each case.

For `Cc1cncc(C(=O)Nc2cccc([C@H](C)Nc3cncc4c3cnn4C)c2)c1` [Compound 750, (S)-5-methyl-N-(3-(1-((1-methyl-1H-pyrazolo[3,4-c]pyridin-4-yl)amino)ethyl)phenyl)nicotinamide], the IC50 in assay [1] and in assay [2] was at least 1000 nM each time.

`C[C@H](Nc1cnc2cc(C(F)F)sc2n1)c1cc(NC(=O)c2ccc(C(F)(F)F)nc2)ccc1F` [Compound 618, (S)-N-(3-(1-((6-(difluoromethyl)thieno[2,3-b]pyrazin-3-yl)amino)ethyl)-4-fluorophenyl)-6-(trifluoromethyl)nicotinamide]: the IC50 in assay [1] and in assay [2] was under 300 nM each time.

Take `CCc1cncc(C(=O)Nc2cccc([C@H](C)Nc3cnc4cnn(C)c4n3)c2)c1` [Compound 101]: the IC50 in assay [1] and in assay [2] was under 300 nM throughout.

In the case of `CCn1cc(C(=O)Nc2cccc([C@H](C)Nc3cnc4cn(CC)nc4n3)c2)cn1` [Compound 297, (S)-1-ethyl-N-(3-(1-((2-ethyl-2H-pyrazolo[3,4-b]pyrazin-6-yl)amino)ethyl)phenyl)-1H-pyrazole-4-carboxamide], the concentration for half-maximal inhibition (IC50) in assay [1] and in assay [2] was 300 to 1000 nM each time.

`CCn1cc2ncc(N[C@@H](C)c3cc(NC(=O)Cc4cc(C)ccn4)ccc3C)nc2n1` [Compound 679, (S)-N-(3-(1-((2-ethyl-2H-pyrazolo[3,4-b]pyrazin-6-yl)amino)ethyl)-4-methylphenyl)-2-(4-methylpyridin-2-yl) acetamide]: the 50% inhibitory concentration (IC50) in assay [1] and in assay [2] was under 300 nM in each case.

With `CCn1cc2ncc(N[C@@H](C)c3cccc(NC(=O)c4ccc(C#N)cc4)c3)nc2n1` [Compound 346, (S)-4-cyano-N-(3-(1-((2-ethyl-2H-pyrazolo[3,4-b]pyrazin-6-yl)amino)ethyl)phenyl)benzamide], the IC50 in assay [1] and in assay [2] was 300 to 1000 nM in each case.

The values above are taken from patent US20230102554A1 (GB002, INC., priority 2019, published 2023).
